Test results as given in publication PMC4578755, “Development of novel cellular histone-binding and chromatin-displacement assays for bromodomain drug discovery” (Epigenetics & Chromatin, 2015).

Target: T1, TRIM24-PB chromatin binding in HeLa TRIM24-PB cells (Homo sapiens, UniProt O15164)
T1 construct: The FLAG-TRIM24-PB construct (residues 810–1050) was generated by PCR amplification; expressed in transfected cells
T1 sequence (O15164 810-1050): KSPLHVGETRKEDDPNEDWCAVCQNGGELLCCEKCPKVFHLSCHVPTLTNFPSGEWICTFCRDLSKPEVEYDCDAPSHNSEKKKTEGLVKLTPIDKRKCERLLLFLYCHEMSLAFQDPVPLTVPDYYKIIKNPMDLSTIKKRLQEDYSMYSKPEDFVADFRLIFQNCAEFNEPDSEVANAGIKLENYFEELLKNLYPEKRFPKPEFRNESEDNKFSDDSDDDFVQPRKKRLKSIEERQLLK
Experiment: In situ cell extraction with IF in HeLa TRIM24-PB cells
Type: cell-based
Method: OV90 or HeLa cells (20,000 cells/100 µL) were seeded into 96-well plates (Corning Costar #3603) using RPMI or DMEM medium, respectively, supplemented with 10 % FBS and grown overnight. Test agents were serially diluted in DMSO (with or without SAHA) to generate 10X master compound plates. From here, 11 µL was transferred into each well containing 100 µL of growth media followed by shaking on a rotation table (15 min, 300 rpm at RT) and incubation at 37 °C for 2 h. Plates were washed once with PBS (150 µL/well) and then with cold, freshly prepared Cytoskeleton (CSK) Buffer (10 mM PIPES, 300 mM Sucrose, 100 mM NaCl, 3 mM MgCl2; pH = 6.8). Immediately thereafter, soluble, non-chromatin-bound proteins were extracted by addition of cold CSK Buffer supplemented with 0.5 % Triton X-100 (150 µL per well) for 10 min at 4 °C followed by 4 % paraformaldehyde fixation (10 min at RT) (Additional file 1: Table S3).
Standard IF procedures were used. Briefly, cells were permeabilized (0.5 % Triton X-100 in PBS) for 15 min and incubated with blocking solution (DAKO #X0909) for 30 min. The following primary antibodies were used: goat anti-V5 (Bethyl #A190-119A) 1:200; mouse anti-FLAG (Sigma #F1804) 1:200; rabbit anti-BRD4 (Abcam #ab128874) 1:200; rabbit anti-TRIM24 (Proteintech #14208-1-AP) 1:400; rabbit anti-K3K23Ac (Cell Signaling #8848) 1:200, and mouse anti-histone H3 (Active Motif #39763) 1:4000. Alexa Fluor-conjugated secondary antibodies were from Invitrogen and Hoechst 33342 (Invitrogen, #H3570) was used for nuclei counterstaining (10 µg/ml). For each Alexa fluorochrome, images (4–10 fields per well; 20X magnifications) were acquired using the Operetta High-Content Screening System (PerkinElmer). Image analysis was performed in Harmony software (PerkinElmer) by selecting nuclei and cytoplasm in Hoechst channel. Gating for single cells of flat morphology was done based on nuclei area, roundness and intensity of Hoechst in the nucleus and in the cytoplasm. In every gated cell, the mean signal intensity value for each fluorochrome was calculated separately in nucleus and cytoplasm. The specific nuclear signal was estimated subtracting mean cytoplasmic value from nuclear; and average value was calculated using at least 1000 cells in each well.
Supplemental Table S3 (Zhan et al.)
Table S3. In Situ Cell Extraction Procedure (IF)
Step Parameter Solution Volume Time Temp (°C)
Seed cells DMEM supplemented with 10 % FBS 37°C,
2 SAHA treatment SAHA (50 µM) in DMEM with 10% FBS 12 µL 2h 37°C,
3 Prepare Master 100X final concentration in assay 30 µL […]
Image analysis: The analysis was performed in Harmony (PerkinElmer) software by selecting nuclei and cytoplasm in Hoechst 33342 channel . […] For each channel “mean nuclear signal“ was calculated as “mean […]

Time to displacement of TRIM24-PB from chromatin (HeLa TRIM24-PB) [min]	IF signal of chromatin-bound TRIM24-PB (HeLa TRIM24-PB with SAHA, anti-FLAG and anti-TRIM24 antibodies, 2 h)	SAHA-induced TRIM24-PB chromatin binding (assay window) (anti-FLAG antibody)	SAHA-induced TRIM24-PB chromatin binding (assay window) (anti-TRIM24 antibody)	Compound
≤ 5	reducing the IF signal to baseline			Cc1nc(S(=O)(=O)Nc2cc3c(cc2Oc2cccc(OCC(C)C)c2)n(C)c(=O)n3C)cn1C [IACS-6558, N-{1,3-dimethyl-6-[3-(2-methylpropoxy)phenoxy]-2-oxo-2,3-dihydro-1H-1,3-benzodiazol-5-yl}-1,2-dimethyl-1H-imidazole-4-sulfonamide]
		fivefold	twofold	O=C(CCCCCCC(=O)Nc1ccccc1)NO [SAHA, Suberoylanilide Hydroxamic Acid]
